Measurements from US10329309B2, “3-(3H-imidazo[4,5-B]pyridin-2-yl)-1H-pyrazolo[4,3-B]pyridines and therapeutic uses thereof” (Samumed, LLC, priority 2015, dated 2019).
pEC50: −log10 of the molar value.

Legend:
Type in all cases: cell-based
[1] = test system: primary human fibroblasts derived from IPF patients (LL29 cells), α-smooth muscle actin (αSMA); assay: Inhibition of the fibrotic process: TGF-β1-treated primary human fibroblasts from IPF patients, αSMA staining; settings: Fibroblast, 96 h, 4 days; for pEC50: LL29 fibroblasts from IPF patients, TGF-β1 20 ng/mL, inhibition of fibrotic process; for inhibition at 10 µM: LL29 fibroblasts, TGF-β1 treated, read-out: percent inhibition at 10 μM (given for EC50 of >10 μM)
Excerpt: Representative compounds were screened using primary human fibroblasts (derived from IPF patients) treated with TGF-β1 to determine their ability to inhibit the fibrotic process.
Primary human fibroblasts derived from IPF patients (LL29 cells) [^1Xiaoqiu Liu, et. al., “Fibrotic Lung Fibroblasts Show Blunted Inhibition by cAMP Due to Deficient cAMP Response Element-Binding Protein Phosphorylation”, Journal of Pharmacology and Experimental Therapeutics (2005), 315(2), 678-687; ^2Watts, K. L., et. al., “RhoA signaling modulates cyclin D1 expression in human lung fibroblasts; implications for idiopathic pulmonary fibrosis”, Respiratory Research (2006), 7(1), 88] were obtained from American Type Culture Collection (ATCC) and expanded in F12 medium supplemented with 15% Fetal Bovine Serum and Penicillin/Streptomycin.
Each compound was dissolved in DMSO as a 10 mM stock and used to prepare compound source plates. Serial dilution (1:2, 11-point dose-response curves from 10 μM to 1.87 nM) and compound transfer was performed using the ECHO 550 (Labcyte, Sunnyvale, Calif.) into 384-well clear bottom assay plates (Greiner Bio-One) with appropriate DMSO backfill for a final DMSO concentration of 0.1%. LL29 cells are plated at 1,500 cells/well in 80 μL/well F12 medium supplemented with 1% Fetal Bovine Serum. One hour after addition of the cells, TGF-β1 (Peprotech; 20 ng/mL) was added to the plates to induce fibrosis (ref. 1 and 2 above). Wells treated with TGF-β1 and containing DMSO were used as controls. Cells were incubated at 37° C. and 5% CO2 for 4 days. Following incubation for 4 days, SYTOX green nucleic acid stain (Life Technologies [Thermo Fisher Scientific]) was added to the wells at a final concentration of 1 μM and incubated at room temperature for 30 min. Cells were then fixed using 4% formaldehyde (Electron Microscopy Sciences), washed 3 times with PBS followed by blocking and permeabilization using 3% Bovine Serum Albumin (BSA; Sigma) and 0.3% Triton X-100 (Sigma) in PBS. Cells were then stained with antibody specific to α-smooth muscle actin (αSMA; Abcam) (ref. 1 and 2 above) in 3% Bovine Serum Albumin (BSA; Sigma) and 0.3% Triton X-100 (Sigma) in PBS, and incubated overnight at 4° C. Cells were then washed 3 times with PBS, followed by incubation with Alexa Flor-647 conjugated secondary antibody (Life Technologies [Thermo Fisher Scientific]) and DAPI at room temperature for 1 hour. Cells were then washed 3 times with PBS and plates were sealed for imaging. αSMA staining was imaged by excitation at 630 nm and emission at 665 nm and quantified using the Compartmental Analysis program on the CellInsight CX5 (Thermo Scientific). Dead or apoptotic cells were excluded from analysis based on positive SYTOX green staining. % of total cells positive for αSMA were counted in each well and normalized to the average of 11 wells treated with TGF-β1 on the same plate using Dotmatics' Studies Software. The normalized averages (fold change over untreated) of 3 replicate wells for each compound concentration were used to create dose-responses curves and EC50 values were calculated using non-linear regression curve fit in the Dotmatics' Studies Software. For EC50 of >10 μM, the percent inhibition at 10 μM is provided.

SW480 colon cancer cells = assay: Cell viability assay (CellTiter-Blue), four days; settings: Homo sapiens, 96 h; for pEC50: CellTiter-Blue cell viability; for inhibition at 10 µM: read-out: percent inhibition at 10 μM (given for EC50 of >10 μM)
Description: Representative compounds were screened using the following assay procedure to assess the effect on cell viability as described below.
Each compound was dissolved in DMSO as a 10 mM stock and used to prepare compound source plates. Serial dilution (1:3, 8-point dose-response curves from 10 μM to 0.0045 μM) and compound transfer was performed using the ECHO 550 (Labcyte, Sunnyvale, Calif.) into 96-well clear bottom, black-walled plates (Corning-Costar).
Approximately 2×10^3 SW480 colon cancer cells were seeded into each well and allowed to incubate in the presence or absence of compound for four days at 37° C./5% CO2. Eight replicates of DMSO-treated cells served as controls and cells treated with compound were performed in duplicate.
After incubation, 20 μL of CellTiter-Blue (Promega) was added to each well allowed to incubate for approximately 3 hours. This reagent was a buffered solution which contains resazurin, metabolically active cells were able to reduce rezarurin (blue) into resorufin (pink) which was highly fluorescent. This measured fluorescence was used as a readout for cell viability.
After incubation, the plates were read at Ex 560 nm Em 590 nm (Cytation 3, BioTek). Dose-response curves were generated and EC50 concentration values were calculated using non-linear regression curve fit in the GraphPad Prism (San Diego, Calif.) or Dotmatics' Studies Software (Bishops Stortford, UK). For EC50 of >10 μM, the percent inhibition at 10 μM is provided.

[2] = test system: Wnt activity (Sp5-Luc reporter, SW480 colon carcinoma cells); assay: Screening assay for Wnt activity: Sp5-Luc reporter gene assay in SW480 cells; settings: Homo sapiens; for inhibition at 10 µM: 10 μM compound, read-out: percent inhibition at 10 μM (given for EC50 of >10 μM); for pEC50: overnight incubation, 10-point dose-response from 10 μM
Excerpt: The screening assay for Wnt activity is described as follows. Reporter cell lines can be generated by stably transducing cancer cell lines (e.g., colon cancer) or primary cells (e.g., IEC-6 intestinal cells) with a lentiviral construct that includes a Wnt-responsive promoter driving expression of the firefly luciferase gene.
SW480 colon carcinoma cells were transduced with a lentiviral vector expressing luciferase with a human Sp5 promoter consisting of a sequence of eight TCF/LEF binding sites. SW480 cells stably expressing the Sp5-Luc reporter gene and a hygromycin resistance gene were selected by treatment with 150 μg/mL of hygromycin for 7 days. These stably transduced SW480 cells were expanded in cell culture and used for all further screening activities. Each compound was dissolved in DMSO as a 10 mM stock and used to prepare compound source plates. Serial dilution (1:3, 10-point dose-response curves starting from 10 μM) and compound transfer was performed using the ECHO 550 (Labcyte, Sunnyvale, Calif.) into 384-well white solid bottom assay plates (Greiner Bio-One) with appropriate DMSO backfill for a final DMSO concentration of 0.1%. For Sp5-Luc reporter gene assays, the cells were plated at 4,000 cells/well in 384-well plates with medium containing 1% fetal bovine serum and incubated overnight at 37° C. and 5% CO2. Following incubation, 20 μl of BrightGlo luminescence reagent (Promega) was added to each well of the 384-well assay plates. The plates were placed on an orbital shaker for 2 min and then luminescence was quantified using the Envision (Perkin Elmer) plate reader. Readings were normalized to DMSO only treated cells, and normalized activities were utilized for EC50 calculations using the dose-response log (inhibitor) vs. response -variable slope (four parameters) nonlinear regression feature available in GraphPad Prism 5.0 (or Dotmatics). For EC50 of >10 μM, the percent inhibition at 10 μM is provided.

| pEC50 (SW480 colon cancer cells) | pEC50 [2] | Structure (SMILES) | pEC50 [1] | inhibition at 10 µM (SW480 colon cancer cells) [%] | inhibition at 10 µM [2] [%] | inhibition at 10 µM [1] [%] |
| --- | --- | --- | --- | --- | --- | --- |
| < 5.00 | < 5.00 | CN1CCN(c2ccnc3[nH]c(-c4n[nH]c5ccc(-c6cncc(NC(=O)C7CCCC7)c6)nc45)nc23)CC1 [Compound 246, N-(5-(3-(7-(4-Methylpiperazin-1-yl)-3H-imidazo[4,5-b]pyridin-2-yl)-1H-pyrazolo[4,3-b]pyridin-5-yl)pyridin-3-yl)cyclopentanecarboxamide] | 5.65 | 0 | 4.2 |  |
| 5.01 | 5.20 | CN(C)CCNc1cc(F)cc(-c2ccnc3[nH]c(-c4n[nH]c5ccc(-c6cncc(OCCN7CCCC7)c6)nc45)nc23)c1 [Compound 786, N^1-(3-Fluoro-5-(2-(5-(5-(2-(pyrrolidin-1-yl)ethoxy)pyridin-3-yl)-1H-pyrazolo[4,3-b]pyridin-3-yl)-3H-imidazo[4,5-b]pyridin-7-yl)phenyl)-N^2,N^2-dimethylethane-1,2-diamine] | 5.54 |  |  |  |
| < 5.00 | 6.01 | Cc1ccc(-c2ccnc3[nH]c(-c4n[nH]c5ccc(-c6cncc(OC7CCCCC7)c6)nc45)nc23)s1 [Compound 735, 5-(5-(Cyclohexyloxy)pyridin-3-yl)-3-(7-(5-methylthiophen-2-yl)-3H-imidazo[4,5-b]pyridin-2-yl)-1H-pyrazolo[4,3-b]pyridine] | 6.86 | 10.9 |  |  |
| < 5.00 | < 5.00 | COc1cccc(-c2ccnc3[nH]c(-c4n[nH]c5ccc(-c6cncc(O)c6)nc45)nc23)c1 [Compound 1030, 5-(3-(7-(3-Methoxyphenyl)-3H-imidazo[4,5-b]pyridin-2-yl)-1H-pyrazolo [4,3-b]pyridin-5-yl)pyridin-3-ol] | < 5.00 | 3 | 33.5 | 48 |
| 5.26 | < 5.00 | CN(C)Cc1cncc(-c2ccc3[nH]nc(-c4nc5c(N6CCCCC6)ccnc5[nH]4)c3n2)c1 [Compound 181, N,N-dimethyl-1-(5-(3-(7-(piperidin-1-yl)-3H-imidazo[4,5-b]pyridin-2-yl)-1H-pyrazolo[4,3-b]pyridin-5-yl)pyridin-3-yl)methanamine] | 5.87 |  | 2.2 |  |
| < 5.00 | < 5.00 | CCNCc1cncc(-c2ccc3[nH]nc(-c4nc5c(-c6ccccn6)ccnc5[nH]4)c3n2)c1 [Compound 146, N-((5-(3-(7-(pyridin-2-yl)-3H-imidazo[4,5-b]pyridin-2-yl)-1H-pyrazolo[4,3-b]pyridin-5-yl)pyridin-3-yl)methyl)ethanamine] | 5.95 | 23.3 | 10.6 |  |
| < 5.00 | < 5.00 | Cn1cc(-c2ccc3[nH]nc(-c4nc5c(-c6cc(F)cc(CNS(C)(=O)=O)c6)ccnc5[nH]4)c3n2)cn1 [Compound 764, N-(3-Fluoro-5-(2-(5-(1-methyl-1H-pyrazol-4-yl)-1H-pyrazolo[4,3-b]pyridin-3-yl)-3H-imidazo[4,5-b]pyridin-7-yl)benzyl)methanesulfonamide] | < 5.00 | 0 | 20.9 | 26.8 |
| < 5.00 | < 5.00 | Cc1cn(-c2ccnc3[nH]c(-c4n[nH]c5ccc(-c6cncc(OCCN(C)C)c6)nc45)nc23)cn1 [Compound 627, N,N-Dimethyl-2-((5-(3-(7-(4-methyl-1H-imidazol-1-yl)-3H-imidazo[4,5-b]pyridin-2-yl)-1H-pyrazolo[4,3-b]pyridin-5-yl)pyridin-3-yl)oxy)ethan-1-amine] | 5.32 | 14.8 | 22.4 |  |
| < 5.00 | < 5.00 | c1cnc2[nH]c(-c3n[nH]c4ccc(-c5cncc(OC6CCNCC6)c5)nc34)nc2c1 [Compound 656, 3-(3H-Imidazo[4,5-b]pyridin-2-yl)-5-(5-(piperidin-4-yloxy)pyridin-3-yl)-1H-pyrazolo[4,3-b]pyridine] | 5.20 | 11.4 | 22.1 |  |
